Counter-ions that a name gives are not always drawn.
Molecular target: T1, Collapsin Response Mediator 2 (CRMP2) (Rattus norvegicus, UniProt P47942)
T1 construct: Primary neurons from newborn rat brain cortices were isolated and cultured; endogenous in cells; host or cells: primary rat cortical neurons (postnatal day 1)
Assay: LC-MS/MS site mapping of CRMP2 peptide GLYDGPVCEVSVTPK succination
Format: cell-based
Details: primary rat neurons, +2 charge-state, y8 and b8 fragment ions
Method: Primary neurons from newborn rat brain cortices were isolated and cultured using an adaptation of methods described previously. Briefly, postnatal day 1 rats were sacrificed by decapitation, the brains were aseptically dissected, and cortices were separated from the rest of the brain in ice-cold Hibernate®-A medium (Life Technologies) containing 2% (v/v) B-27 supplement (Life Technologies) and 0.5 mM glutamine (Invitrogen™). The tissue was minced in fragments of about 1 mm3 with a scalpel and subjected to digestion with 2 mg/ml papain (Worthington) in the supplemented Hibernate®-A medium for 20 minutes at 30° C. in a shaker incubator set at 100 rpm. After thorough trituration through a fire-polished Pasteur pipette, the tissue was allowed to settle for 5 minutes and the supernatant was carefully layered on top of a discontinuous OptiPrep™ (Sigma-Aldrich™) gradient prepared in Hibernate®-A medium; the layers contained 35, 25, 20 and 15% OptiPrep™. […] After a centrifugation at 500 g for 5 min at room temperature, cells were resuspended in Neurobasal™—A medium containing 0.5 mM glutamine, 2% B-27 supplement, and 5 ng/ml bFGF (Invitrogen™); counted and plated on 24-well plates pretreated with 0.01% poly-L-lysine (Sigma-Aldrich™) at a density of 200,000 cells/well. […] The protein content in the different samples was determined by the Lowry assay. […]

## COC(=O)/C=C/C(=O)OC [DMF, dimethyl fumarate]
  site of succination on CRMP2: Cys504

— patent publication US20260133203A1, “DETECTION OF FUMARATE-DERIVED MODIFICATION IN A TEST SAMPLE” (UNIVERSITY OF SOUTH CAROLINA, priority 2017, published 2026)
